In paper PMC6934184, “Selective DNA-PKcs inhibition extends the therapeutic index of localized radiotherapy and chemotherapy” (The Journal of Clinical Investigation, 2019):

Molecular target: T1, WEE1 (Homo sapiens, UniProt P30291)
T1 construct: purchased Thermo Fisher Scientific (Life Technologies) SelectScreen
Assay: SelectScreen LanthaScreen
Type: binding
Details: read-out: % displacement
Procedure: The in vitro kinase selectivity of NU5455 was determined using the SelectScreen Broad Assay Panel (Thermo Fisher Scientific) involving activity and binding assays (Supplemental Table 1). […] Class IA PI3Ks were measured using the p85α subunit.
Kinase [ATP] % Assay Kinase [ATP] % Assay Kinase [ATP] % Assay Kinase [ATP] % Assay
DNA-PK Km app 98.3 Z LATS2 n/a 4.7 L KIT D820E n/a 1.3 L GSK3B (GSK3 beta) Km app -2.5 Z
PIK3C3 (hVPS34) Km app 85.9 A PRKCZ (PKC zeta) Km app 4.7 Z GRK1 n/a 1.3 L BMPR2 n/a -2.5 L
PIK3C2B (PI3K-C2 beta) 10 28.9 A FGFR1 Km app 4.7 Z BRSK2 n/a 1.2 L CDC42 BPB (MRCKB) Km app -2.5 Z
SNF1LK2 Km app 26.6 Z MINK1 Km app 4.6 Z NUAK1 (ARK5) Km app 1.2 A AMPK (A2/B2/G2) n/a -2.6 L
HCK Km app 18.0 Z CSF1R (FMS) Km app 4.3 Z CDK9/cyclin K n/a 1.0 L PRKG1 Km app -2.7 Z
NEK2 Km app 17.8 Z CSNK1G3 (CK1 gamma 3) Km app 4.2 Z NUAK2 n/a 1.0 L KIT T670E n/a -2.8 L
ALK Km app 17.3 Z STK32C (YANK3) n/a 4.2 L CDK2/cyclin O n/a 0.9 L ERBB4 (HER4) Km app -2.8 Z
FGFR3 K650M n/a 16.5 L STK22D (TSSK1) Km app 4.2 Z CAMKK2 (CaMKK beta) n/a 0.9 L PLK4 n/a -2.8 L
SIK3 n/a 16.1 L TAOK3 (JIK) n/a 4.2 L FGFR3 Km app 0.9 Z GRK7 Km app -3.0 Z
LYN A Km app 15.2 Z RPS6KA4 (MSK2) Km app 4.2 Z ULK2 n/a 0.9 L MAPKAPK2 Km app -3.1 Z
BMPR1B (ALK6) n/a 14.5 L PTK2B (FAK2) Km app 4.2 Z KIT D816V n/a 0.9 L FGFR4 Km app -3.1 Z
INSRR (IRR) Km app 14.1 Z CLK2 Km app 4.1 Z CAMK1 (CaMK1) 10 0.8 A CASK n/a -3.1 L
PLK2 Km app 14.1 Z STK24 (MST3) Km app 4.1 Z PTK6 (Brk) Km app 0.7 Z GRK5 Km app -3.2 Z
PRKACA (PKA) Km app 14.0 Z CAMK1D (CaMKI delta) Km app 4.1 Z CAMK2B (CaMKII beta) Km app 0.7 Z EGFR (ErbB1) T790M Km app -3.3 Z
EIF2AK2 (PKR) n/a 13.3 L INSR Km app 4.1 Z ACVR1 (ALK2) n/a 0.7 L PAK4 Km app -3.3 Z
PRKX Km app 12.5 Z IRAK1 Km app 4.0 A ABL1 H396P n/a 0.6 L DAPK3 (ZIPK) Km app -3.4 Z
FGR Km app 12.1 Z SRC N1 Km app 3.9 Z MERTK (cMER) A708S n/a 0.6 L RET M918T n/a -3.5 L
CLK1 Km app 11.7 Z SRPK2 Km app 3.9 Z MAPKAPK5 (PRAK) Km app 0.6 Z PRKCQ (PKC theta) Km app -3.7 Z
MARK3 Km app 11.4 Z RPS6KA6 (RSK4) Km app 3.8 Z AKT1 (PKB alpha) Km app 0.5 Z CAMKK1 (CAMKKA) n/a -3.8 L
PDGFRB (PDGFR beta) Km app 11.0 Z GRK6 Km app 3.7 Z NTRK3 (TRKC) Km app 0.4 Z FLT3 D835Y Km app -3.9 Z
PRKCN (PKD3) Km app 10.7 Z PKN1 (PRK1) Km app 3.6 Z ZAP70 Km app 0.3 Z ROCK2 Km app -4.1 Z
STK16 (PKL12) n/a 10.5 L MAP3K8 (COT) 100 3.5 Z CSNK1A1 (CK1 alpha 1) Km app 0.3 Z CHUK (IKK alpha) Km app -4.2 A
FES (FPS) Km app 10.4 Z FLT4 (VEGFR3) Km app 3.5 Z MYLK (MLCK) n/a 0.2 L AXL Km app -4.2 Z
ABL1 Km app 10.4 Z GRK4 Km app 3.5 Z MKNK2 (MNK2) n/a 0.2 L PIM2 Km app -4.3 Z
MUSK Km app 10.3 Z FRK (PTK5) Km app 3.4 Z AMPK (A1/B1/G3) n/a 0.2 L PAK1 Km app -4.4 Z
MAPK1 (ERK2) Km app 10.1 Z FYN A n/a 3.3 L MAP3K2 (MEKK2) n/a 0.1 L BMPR1A (ALK3) n/a -4.4 L
BRAF 100 9.9 Z CDK1/cyclin A2 n/a 3.3 L CDK8/cyclin C n/a 0.1 L STK4 (MST1) Km app -4.4 Z
IGF1R Km app 9.7 Z KIT V559D T670I n/a 3.1 L MARK2 Km app 0.1 Z PRKCH (PKC eta) Km app -4.6 Z
MAPK14 (p38 alpha) Km app 9.7 Z SPHK2 10 3.1 A ICK n/a 0.0 L SGKL (SGK3) Km app -4.6 Z
LCK Km app 9.6 Z FGFR3 G697C n/a 3.1 L FGFR2 Km app 0.0 Z PI4KB (PI4K beta) Km app -4.7 A
MAPK11 (p38 beta) Km app 9.5 Z RIPK2 n/a 3.1 L AKT2 (PKB beta) Km app 0.0 Z PRKCE (PKC epsilon) Km app -4.9 Z
SRC Km app 9.5 Z PAK6 Km app 3.0 Z EPHB2 Km app -0.1 Z PHKG1 Km app -5.0 Z
CHEK1 (CHK1) Km app 9.3 Z LYN B Km app 3.0 Z TGFBR2 n/a -0.1 L PDGFRA D842V Km app -5.0 Z
CAMK2D (CaMKII delta) Km app 9.3 Z DAPK2 n/a 2.9 L TEK (Tie2) Km app -0.1 Z PRKG2 (PKG2) Km app -5.1 Z
PLK1 Km app 9.2 Z EPHA4 Km app 2.9 Z AURKA (Aurora A) Km app -0.1 Z TYRO3 (RSE) Km app -5.1 Z
RET Y791F Km app 9.2 Z PIK3CG (p110 gamma) Km app 2.9 A KIT D816H n/a -0.2 L TAOK2 (TAO1) Km app -5.1 Z
FLT3 Km app 9.1 Z HIPK1 (Myak) Km app 2.8 Z KIT N822K n/a -0.2 L EPHB4 Km app -5.3 Z
MAPK10 (JNK3) 100 9.0 Z ADRBK2 (GRK3) Km app 2.8 Z PRKACG (PRKAC gamma) n/a -0.2 L AURKC (Aurora C) Km app -5.4 Z
CSNK2A2 (CK2 alpha 2) Km app 8.7 Z STK17B (DRAK2) n/a 2.7 L TEK (TIE2) Y1108F n/a -0.3 L JAK1 Km app -5.7 Z […]

T1 sequence (P30291 whole entry): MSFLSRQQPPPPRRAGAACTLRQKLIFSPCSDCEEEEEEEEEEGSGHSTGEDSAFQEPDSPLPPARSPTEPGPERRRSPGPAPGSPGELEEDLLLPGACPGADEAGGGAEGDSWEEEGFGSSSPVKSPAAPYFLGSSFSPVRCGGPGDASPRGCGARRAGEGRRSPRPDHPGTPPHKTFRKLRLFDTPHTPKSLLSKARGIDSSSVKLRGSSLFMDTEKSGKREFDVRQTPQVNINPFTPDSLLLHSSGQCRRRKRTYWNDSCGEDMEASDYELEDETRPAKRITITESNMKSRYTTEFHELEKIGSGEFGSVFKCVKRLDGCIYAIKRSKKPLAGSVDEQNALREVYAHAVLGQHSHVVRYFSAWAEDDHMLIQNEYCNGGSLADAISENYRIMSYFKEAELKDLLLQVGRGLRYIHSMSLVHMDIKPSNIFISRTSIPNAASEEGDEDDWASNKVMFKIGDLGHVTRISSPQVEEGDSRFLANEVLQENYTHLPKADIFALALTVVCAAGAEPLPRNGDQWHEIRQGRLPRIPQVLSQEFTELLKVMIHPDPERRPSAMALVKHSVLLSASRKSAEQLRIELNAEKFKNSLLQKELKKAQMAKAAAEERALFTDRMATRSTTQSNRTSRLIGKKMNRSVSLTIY

`CN(C(=O)CN1CCOCC1)c1ccc2sc3c(-c4cccc5c(=O)cc(N6CC7CCC(C6)O7)oc45)cccc3c2c1` [NU5455] was tested, and the inhibition at 1 µM was 18.2%.
